From PubChem BioAssay AID248 (DTP/NCI, 2004)
“And” between values parts separate entries of the source, which are not always exact repeats. Identical values can stand only once. Inconclusive results and toxic doses are left out. No stated cut-off is given here; in the data, active means T/C of 150% or more; inactive means T/C below 125%.

Test system: L1210 leukemia ip in BDF1 mice, survival T/C
Assay: NCI In Vivo Anticancer Drug Screen. Data for tumor model L1210 Leukemia (intraperitoneal) in B6D2F1 (BDF1) mice
Conditions: higher = longer survival
How it was run: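 Ratio derived from survival: compound-dosed mice over vehicle-dosed mice, all bearing a transplantable tumor.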

[1] = endpoint: mean survival time, dose: 100.0 mg/kg/injection, schedule: Q04DX003 (ip), vehicle: Klucel (hydroxypropylcellulose) (HPC)
[2] = endpoint: mean survival time, dose: 200.0 mg/kg/injection, schedule: Q04DX003 (ip), vehicle: Klucel (hydroxypropylcellulose) (HPC)
[3] = endpoint: mean survival time, dose: 400.0 mg/kg/injection, schedule: Q04DX003 (ip), vehicle: Klucel (hydroxypropylcellulose) (HPC)
[4] = endpoint: mean survival time, dose: 100.0 mg/kg/injection, schedule: Q04DX003 (ip), vehicle: saline with Tween-80
[5] = endpoint: mean survival time, dose: 200.0 mg/kg/injection, schedule: Q04DX003 (ip), vehicle: saline with Tween-80
[6] = endpoint: mean survival time, dose: 400.0 mg/kg/injection, schedule: Q04DX003 (ip), vehicle: saline with Tween-80
[7] = endpoint: mean survival time, dose: 100.0 mg/kg/injection, schedule: Q01DX009 (ip), vehicle: Klucel (hydroxypropylcellulose) (HPC)
[8] = endpoint: mean survival time, dose: 200.0 mg/kg/injection, schedule: Q01DX009 (ip), vehicle: Klucel (hydroxypropylcellulose) (HPC)
[9] = endpoint: mean survival time, dose: 400.0 mg/kg/injection, schedule: Q01DX009 (ip), vehicle: Klucel (hydroxypropylcellulose) (HPC)
[10] = endpoint: mean survival time, dose: 100.0 mg/kg/injection, schedule: Q01DX001 (ip), vehicle: carboxymethylcellulose (CMC)
[11] = endpoint: mean survival time, dose: 200.0 mg/kg/injection, schedule: Q01DX001 (ip), vehicle: carboxymethylcellulose (CMC)
[12] = endpoint: mean survival time, dose: 100.0 mg/kg/injection, schedule: Q01DX009 (ip), vehicle: saline
[13] = endpoint: mean survival time, dose: 200.0 mg/kg/injection, schedule: Q01DX009 (ip), vehicle: saline
[14] = endpoint: mean survival time, dose: 400.0 mg/kg/injection, schedule: Q01DX009 (ip), vehicle: saline
[15] = endpoint: mean survival time, dose: 400.0 mg/kg/injection, schedule: Q01DX001 (ip), vehicle: carboxymethylcellulose (CMC)

Measured: T/C

CC1(C)C2CCC1(C)C(NCc1cc(Cl)cc(Cl)c1O)C2 (stereo not drawn)
inactive: [1] 92 % of control | [2] 103 % of control | [3] 98 % of control

O=C(NNC(=S)Nc1ccccc1Cl)c1ccncc1
inactive: endpoint: mean survival time, dose: 75.0 mg/kg/injection, schedule: Q01DX009 (ip), vehicle: Klucel (hydroxypropylcellulose) (HPC) 93 % of control | endpoint: mean survival time, dose: 150.0 mg/kg/injection, schedule: Q01DX009 (ip), vehicle: Klucel (hydroxypropylcellulose) (HPC) 97 % of control | endpoint: mean survival time, dose: 300.0 mg/kg/injection, schedule: Q01DX009 (ip), vehicle: Klucel (hydroxypropylcellulose) (HPC) 101 % of control

Cc1cc(O)c(O)c([N+](=O)[O-])c1
inactive: [4] 96 % of control | [5] 92 % of control | [6] 101 % of control

CCOC(=O)c1ccc(NC(=O)Nc2cc(C)ccn2)cc1
inactive: [7] 96 % of control | [8] 107 % of control | [9] 105 % of control

O=CCC(O)C(O)C(O)CO (stereo not drawn)
inactive: endpoint: mean survival time, dose: 62.5 mg/kg/injection, schedule: Q01DX009 (ip), vehicle: saline 115 % of control and 91 % of control | endpoint: mean survival time, dose: 125.0 mg/kg/injection, schedule: Q01DX009 (ip), vehicle: saline 94 % of control and 95 % of control | endpoint: mean survival time, dose: 125.0 mg/kg/injection, schedule: Q01DX010 (ip), vehicle: saline 94 % of control and 92 % of control | endpoint: mean survival time, dose: 125.0 mg/kg/injection, schedule: Q01DX Z (ip), vehicle: carboxymethylcellulose (CMC) 98 % of control | endpoint: mean survival time, dose: 250.0 mg/kg/injection, schedule: Q01DX001 (ip), vehicle: saline 101 % of control | endpoint: mean survival time, dose: 250.0 mg/kg/injection, schedule: Q01DX009 (ip), vehicle: saline 102 % of control and 104 % of control | endpoint: mean survival time, dose: 250.0 mg/kg/injection, schedule: Q01DX010 (ip), vehicle: saline 97 % of control and 101 % of control | endpoint: mean survival time, dose: 250.0 mg/kg/injection, schedule: Q01DX Z (ip), vehicle: carboxymethylcellulose (CMC) 102 % of control | endpoint: mean survival time, dose: 500.0 mg/kg/injection, schedule: Q01DX001 (ip), vehicle: saline 100 % of control | endpoint: mean survival time, dose: 500.0 mg/kg/injection, schedule: Q01DX009 (ip), vehicle: saline 101 % of control | endpoint: mean survival time, dose: 500.0 mg/kg/injection, schedule: Q01DX010 (ip), vehicle: saline 94 % of control and 101 % of control | endpoint: mean survival time, dose: 500.0 mg/kg/injection, schedule: Q01DX Z (ip), vehicle: carboxymethylcellulose (CMC) 116 % of control | endpoint: mean survival time, dose: 1000.0 mg/kg/injection, schedule: Q01DX001 (ip), vehicle: saline 101 % of control | endpoint: mean survival time, dose: 1000.0 mg/kg/injection, schedule: Q01DX010 (ip), vehicle: saline 102 % of control and 104 % of control | endpoint: mean survival time, dose: 1000.0 mg/kg/injection, schedule: Q01DX Z (ip), vehicle: carboxymethylcellulose (CMC) 109 % of control | endpoint: mean survival time, dose: 2000.0 mg/kg/injection, schedule: Q01DX001 (ip), vehicle: saline 106 % of control | endpoint: median survival time, dose: 62.5 mg/kg/injection, schedule: Q01DX009 (ip), vehicle: saline 100 % of control | endpoint: median survival time, dose: 125.0 mg/kg/injection, schedule: Q01DX009 (ip), vehicle: saline 111 % of control | endpoint: median survival time, dose: 250.0 mg/kg/injection, schedule: Q01DX009 (ip), vehicle: saline 100 % of control | endpoint: median survival time, dose: 500.0 mg/kg/injection, schedule: Q01DX009 (ip), vehicle: saline 100 % of control and 105 % of control

Cn1c(=O)[nH]c(=O)c2[nH]c(CO)nc21
inactive: [10] 100 % of control | [11] 102 % of control

O=[P+](O)C(O)c1ccccc1 (stereo not drawn)
inactive: [12] 95 % of control | [13] 95 % of control | [14] 95 % of control

CC1(c2ccccc2)SC(C)(c2ccccc2)SC(c2ccccc2)(c2ccccc2)S1 (stereo not drawn)
inactive: endpoint: mean survival time, dose: 100.0 mg/kg/injection, schedule: Q01DX001 (ip), vehicle: Klucel (hydroxypropylcellulose) (HPC) 100 % of control | endpoint: mean survival time, dose: 200.0 mg/kg/injection, schedule: Q01DX001 (ip), vehicle: Klucel (hydroxypropylcellulose) (HPC) 98 % of control | endpoint: mean survival time, dose: 400.0 mg/kg/injection, schedule: Q01DX001 (ip), vehicle: Klucel (hydroxypropylcellulose) (HPC) 91 % of control

O=C(O)C(CSC(c1ccccc1)(c1ccccc1)c1ccccc1)NSc1ccccc1[N+](=O)[O-] (stereo not drawn)
inactive: [7] 114 % of control | [1] 98 % of control | endpoint: mean survival time, dose: 175.0 mg/kg/injection, schedule: Q01DX009 (ip), vehicle: Klucel (hydroxypropylcellulose) (HPC) 98 % of control | [8] 121 % of control | [2] 102 % of control | endpoint: mean survival time, dose: 265.0 mg/kg/injection, schedule: Q01DX009 (ip), vehicle: Klucel (hydroxypropylcellulose) (HPC) 100 % of control | [9] 110 % of control | [3] 95 % of control

CCC1(c2ccccc2)C(=O)NC(=S)N(C)C1=O (stereo not drawn)
inactive: endpoint: mean survival time, dose: 75.0 mg/kg/injection, schedule: Q01DX001 (ip), vehicle: other 95 % of control | endpoint: mean survival time, dose: 150.0 mg/kg/injection, schedule: Q01DX001 (ip), vehicle: other 96 % of control

C=CCc1cn(C2CC(O)C(CO)O2)c(=O)[nH]c1=O (stereo not drawn)
inactive: endpoint: mean survival time, dose: 50.0 mg/kg/injection, schedule: Q01DX001 (ip), vehicle: saline 101 % of control | endpoint: mean survival time, dose: 50.0 mg/kg/injection, schedule: Q04DX002 (ip), vehicle: saline 91 % of control | endpoint: mean survival time, dose: 100.0 mg/kg/injection, schedule: Q01DX001 (ip), vehicle: saline 100 % of control and 101 % of control and 106 % of control | [12] 98 % of control | endpoint: mean survival time, dose: 100.0 mg/kg/injection, schedule: Q04DX002 (ip), vehicle: saline 110 % of control | endpoint: mean survival time, dose: 100.0 mg/kg/injection, schedule: Q04DX003 (ip), vehicle: saline 106 % of control | endpoint: mean survival time, dose: 115.0 mg/kg/injection, schedule: Q01DX009 (ip), vehicle: saline 104 % of control | endpoint: mean survival time, dose: 175.0 mg/kg/injection, schedule: Q01DX009 (ip), vehicle: saline 102 % of control | endpoint: mean survival time, dose: 178.0 mg/kg/injection, schedule: Q01DX015 (ip), vehicle: saline 110 % of control | [13] 109 % of control and 112 % of control | endpoint: mean survival time, dose: 200.0 mg/kg/injection, schedule: Q04DX002 (ip), vehicle: saline 100 % of control | endpoint: mean survival time, dose: 200.0 mg/kg/injection, schedule: Q04DX003 (ip), vehicle: saline 95 % of control | endpoint: mean survival time, dose: 264.0 mg/kg/injection, schedule: Q01DX009 (ip), vehicle: saline 110 % of control | endpoint: mean survival time, dose: 267.0 mg/kg/injection, schedule: Q01DX015 (ip), vehicle: saline 107 % of control | [14] 115 % of control | endpoint: mean survival time, dose: 400.0 mg/kg/injection, schedule: Q01DX015 (ip), vehicle: saline 119 % of control | endpoint: mean survival time, dose: 400.0 mg/kg/injection, schedule: Q04DX003 (ip), vehicle: saline 111 % of control | endpoint: mean survival time, dose: 600.0 mg/kg/injection, schedule: Q01DX015 (ip), vehicle: saline 121 % of control | endpoint: mean survival time, dose: 800.0 mg/kg/injection, schedule: Q01DX001 (ip), vehicle: saline 105 % of control | endpoint: mean survival time, dose: 1600.0 mg/kg/injection, schedule: Q01DX001 (ip), vehicle: saline 110 % of control

CCC(C(C)C)C(Br)C(Br)C(C)C1CCC2C3CC=C4CC(OC(C)=O)CCC4(C)C3CCC12C (stereo not drawn)
inactive: [8] 91 % of control | [9] 96 % of control

CCOCc1nc(N)nc(N)c1-c1ccc(Cl)c(Cl)c1
inactive: [10] 97 % of control | [11] 89 % of control | [15] 108 % of control

Cc1ccnc(SCC(=O)O)n1
inactive: [7] 108 % of control | [1] 96 % of control | [8] 95 % of control | [2] 96 % of control | [9] 90 % of control | [3] 95 % of control

CCOC(=O)/C=C1/Nc2cc(C)c(C)cc2NC1=O
inactive: [4] 91 % of control | [5] 89 % of control | [6] 94 % of control

O=C(O)Cc1ccc(NC(=O)NCCCl)cc1
inactive: [10] 87 % of control | [11] 98 % of control | [15] 93 % of control

c1cc2c(cc1C1SCSCS1)OCO2
inactive: [7] 98 % of control | [1] 96 % of control | [8] 92 % of control | [2] 98 % of control | [9] 90 % of control | [3] 98 % of control

CCCCCCCCCCCCCCCCn1cnc2c(N)ncnc21
inactive: endpoint: mean survival time, dose: 12.5 mg/kg/injection, schedule: Q01DX005 (ip), vehicle: other 104 % of control | endpoint: mean survival time, dose: 25.0 mg/kg/injection, schedule: Q01DX005 (ip), vehicle: other 96 % of control | endpoint: mean survival time, dose: 50.0 mg/kg/injection, schedule: Q01DX005 (ip), vehicle: other 101 % of control | endpoint: mean survival time, dose: 100.0 mg/kg/injection, schedule: Q01DX005 (ip), vehicle: other 96 % of control | endpoint: mean survival time, dose: 200.0 mg/kg/injection, schedule: Q01DX005 (ip), vehicle: other 95 % of control
